Patent publication EP0420798B1, “Antimicrobial compositions” (Ciba Vision AG, Hettlingen, priority 1989, dated 1991)

What was measured:
[1] = 5-day ocular tolerance test in animals; assay type: in vivo, Kaninchen
Excerpt: Die überraschenderweise verbesserte Augenverträglichkeit der Verbindungen der Formel I im Vergleich zu Benzalkoniumchlorid wird z.B. aus den Ergebnissen der im folgenden beschriebenen 5-Tage-Verträglichkeitsprüfung beim Tier deutlich: Verglichen wurden jeweils 0,01 %-ige Lösungen von Benzoxoniumchlorid und Benzalkoniumchlorid. Diese Lösungen wurden 5 Tage lang fünfmal (in 90 Minuten-Invervallen) in den Konjunktivalsack von Kaninchen eingetropft. Am Ende des Versuchs wurden die behandelten Augen auf Klinische Befunde, wie z.B. Rötungen der Konjunktiva, Korneatrübungen, Sekretion und Bindehautschwellungen, untersucht. Dabei ergaben sich die folgenden Resultate: Brenzoxoniumchlorid (≙ Verbindung der Formel I), 0,01 % 5 Instillationen/Tier/Tag im Abstand von jeweils 90 min keine Befunde Benzalkoniumchlorid (≙ Vergleichsverbindung), 0,01 % 5 Instillationen/Tier/Tag im Abstand von jeweils 90 min 4 Befunde

Ps. aeruginosa = assay: Preservative challenge test; assay type: cell-based; design: key: k. W.: k.W.: kein Wachstum; conditions: 0,1 mg/ml, pH 6, inoculum 1,1•10^6/ml
Excerpt: (§1) Die konservierende Wirkung der Verbindungen der Formel I wird z.B. aus den Ergebnissen des folgenden Konservierungsmittelbelastungstests deutlich: […]

St. aureus = assay: Preservative challenge test; assay type: cell-based; design: key: k. W.: k.W.: kein Wachstum; conditions: 0,1 mg/ml, pH 6, inoculum 1,4•10^6/ml
Excerpt: as §1

E. coli = assay: Preservative challenge test; assay type: cell-based; design: key to Reduktion des Wachstums: k. W.: k.W.: kein Wachstum; conditions: 0,1 mg/ml, pH 6, inoculum 1,5•10^6/ml
Excerpt: as §1

C. albicans = assay: Preservative challenge test; assay type: cell-based; design: key to Reduktion des Wachstums: k. W.: k.W.: kein Wachstum; conditions: 0,1 mg/ml, pH 6, inoculum 9,9•10^5/ml
Excerpt: as §1

[2] = 4-week ocular local tolerance study in rabbits; assay type: in vivo, pigmentierte Himalayakaninchen; conditions: 0,01 % solution, 50 µl ten times daily at 45 min intervals into conjunctival sac of right eye for 4 weeks; histopathology at end; animals with conjunctival lesions and acanthosis/hyperkeratosis at margin of lower right eyelid
Excerpt: Die bessere Augenverträglichkeit der Verbindungen der Formel I im Vergleich zu Benzalkoniumchlorid wird z.B. auch aus den Ergebnissen der im folgenden beschriebenen 4 Wochen dauernden okularen, lokalen Verträglichkeitsstudie beim Kaninchen deutlich: Verglichen wurden jeweils 0,01 %-ige Lösungen von N-Benzyl-N-(gemischtes C₈-C₁₈-Alkyl)-N,N-bis-(2-hydroxyethyl)-ammoniumchlorid und Benzalkoniumchlorid. Als Versuchstiere dienten pigmentierte Himalayakaninchen. Diesen wurden 4 Wochen lang zehnmal täglich (in 45 Minuten-Intervallen) jeweils 50 µl der entsprechenden Lösung in den Konjunktivalsack des rechten Auges verabreicht. Zur Kontrolle wurde in das linke Auge jeweils eine Vergleichslösung, die kein Konservierungsmittel enthielt, eingetropft. Die Tiere wurden am ersten und am fünften Behandlungstag ophthalmologisch untersucht. […] Dagegen wurden bei 4 von 6 mit Benzalkoniumchloridlösung behandelten Tieren Läsionen in der Konjunktiva und eine Akanthose und Hyperkeratose am Rand des unteren rechten Augenlids beobachtet. Die Benzalkoniumchloridlösung verursachte demnach Aenderungen am konjunktivalen Epithel, welche bei der erfindungsgemässen Lösung nicht auftraten. Damit ist überzeugend nachgewiesen, dass die Verbindungen der Formel I eine im Vergleich zu Benzalkoniumchlorid überraschend verbesserte Langzeitverträglichkeit im Auge besitzen.

Molecule | Klinische Befunde ([1]; 0,01 % solution, 5 instillations/animal/day at 90 min intervals into the conjunctival sac for 5 days, eyes examined at end of test (conjunctival redness, corneal opacity, secretion, conjunctival swelling)) | Reduktion des Wachstums (Ps. aeruginosa; contact time 10 min) | Reduktion des Wachstums (Ps. aeruginosa; contact time 6 h) | Reduktion des Wachstums (Ps. aeruginosa; contact time 24 h) | Reduktion des Wachstums (St. aureus; contact time 10 min) | Reduktion des Wachstums (St. aureus; contact time 6 h) | Reduktion des Wachstums (St. aureus; contact time 24 h) | Reduktion des Wachstums (E. coli; contact time 6 h) | Reduktion des Wachstums (E. coli; contact time 24 h) | killing at 100 µg/mL (E. coli; Escherichia coli, 10 min, contact time 10 min, read-out: Reduktion des Wachstums) [%] | Reduktion des Wachstums (C. albicans; contact time 6 h) | Reduktion des Wachstums (C. albicans; contact time 24 h) | killing at 100 µg/mL (C. albicans; Candida albicans, 10 min, contact time 10 min, read-out: Reduktion des Wachstums) [%] | Klinische Befunde ([1]; in vivo) [Befunde] | okulare Läsionen [2]
CCCCCCCCCCCC[N+](CCO)(CCO)Cc1ccccc1.[Cl-] [Benzoxoniumchlorid, N-Benzyl-N-(n-dodecyl)-N,N-bis-(2-hydroxyethyl)-ammoniumchlorid] | keine Befunde | k. W. | k. W. | k. W. | k. W. | k. W. | k. W. | k. W. | k. W. | 100 | k. W. | k. W. | 100 | – | –
N-Benzyl-N-(C₈-C₁₈-alkyl)-N,N-dimethylammoniumchlorid [Benzalkoniumchlorid, reference compound] | – | – | – | – | – | – | – | – | – | – | – | – | – | 4 | 4 von 6
N-Benzyl-N-(gemischtes C₈-C₁₈-Alkyl)-N,N-bis-(2-hydroxyethyl)-ammoniumchlorid | – | – | – | – | – | – | – | – | – | – | – | – | – | – | keine okularen Läsionen
